Data taken from ChEMBL document CHEMBL3243927, “5,6,7,8-Tetrahydroquinolines. 5. Antiulcer and antisecretory activity of 5,6,7,8-tetrahydroquinolinethioureas and related heterocycles” (J Med Chem, 1977).
Activity calls are given as the source filed them. The calls are words filed in the database; no cut-off is given here.

Legend:
Rattus norvegicus [1] = assay: Antiulcer activity in Sprague-Dawley rat assessed as inhibition of cold-restraint stress-induced gastric erosion at 100 mg/kg, po after 3 hrs; format: functional, organism-based; set-up: dose 100 mg/kg; conditions: Stomach
Rattus norvegicus [2] = assay: Antisecretory activity in pylorus-ligated Sprague-Dawley rat assessed as inhibition of gastric juice secretion at 30 mg/kg administered intraduodenally after 4 hrs by potentiographic titration analysis relative to control; format: functional, organism-based; set-up: dose 30 mg/kg
Rattus norvegicus [3] = assay: Antiulcer activity in Sprague-Dawley rat assessed as inhibition of cold-restraint stress-induced gastric erosion at 30 mg/kg, po after 3 hrs; format: functional, organism-based; set-up: dose 30 mg/kg; conditions: Stomach
Rattus norvegicus [4] = assay: Antisecretory activity in pylorus-ligated Sprague-Dawley rat assessed as inhibition of gastric juice secretion at 10 mg/kg administered intraduodenally after 4 hrs by potentiographic titration analysis; format: functional, organism-based; set-up: dose 10 mg/kg
Rattus norvegicus [5] = assay: Toxicity in po dosed Sprague-Dawley rat assessed as mortality; format: organism-based; conditions: in vivo

| SMILES | Activity (Rattus norvegicus [1]) | Activity (Rattus norvegicus [2]) | Activity (Rattus norvegicus [3]) | Activity (Rattus norvegicus [4]) | Activity (Rattus norvegicus [5]) |
| --- | --- | --- | --- | --- | --- |
| S=C1NCc2cccnc2N1 | inactive | inactive |  |  |  |
| CNC(=S)N1CCc2ncc(C)cc2C1 | Active | inactive |  |  |  |
| Cc1cnc2c(c1)C(NC(N)=S)CCC2 (configuration not stated) | inactive |  |  |  |  |
| CNC(=S)NC1CCCc2ncc(C)cc21 (configuration not stated) | inactive | inactive |  |  |  |
| O=C(NC(=S)N1CCc2cccnc21)c1ccccc1 | inactive | inactive |  |  |  |
| CNC(=S)N1CCc2cccnc21 |  | Active | Active |  |  |
| CNC(=S)N1CCCc2ncccc21 |  | Active | Active |  |  |
| CN/C(=N/C(N)=S)NC1CCCc2cc(C)cnc21 (configuration not stated) | Active | inactive |  |  |  |
| CN/C(=N/C#N)NC1CCCc2cc(C)cnc21 (configuration not stated) | inactive | inactive |  |  |  |
| CS/C(=N/C#N)NC1CCCc2cc(C)cnc21 (configuration not stated) | inactive |  |  |  |  |
| CCCCNC(=S)N1CCc2cccnc21 | inactive | inactive |  |  |  |
| CN/C(=N/C(N)=O)NC1CCCc2cc(C)cnc21 (configuration not stated) | inactive | inactive |  |  |  |
| Cc1cnc2c(c1)CCCC2NC(N)=S (configuration not stated) | Active | Active |  |  |  |
| CNC(=S)NC(C)C1CCCc2cc(C)cnc21 (configuration not stated) | inactive | inactive |  |  |  |
| CNC(=S)NC1CCCc2cc(C)cnc21 (configuration not stated) | Active |  |  | Active |  |
| Cc1cnc2c(c1)C(NC(=S)Nc1ccccc1)CCC2 (configuration not stated) | inactive | Active |  |  |  |
| Cc1cnc2c(c1)C(NC(=S)NC(=O)c1ccccc1)CCC2 (configuration not stated) |  | inactive |  |  | Toxic |
| CNC(=S)N1CCCc2cccnc21 |  | Active | Active |  |  |
| NC(=S)N1CCc2cccnc21 |  |  |  | Active | Toxic |
| Cc1cnc2c(c1)CCCC2NC(=S)NC(=O)c1ccccc1 (configuration not stated) | inactive | inactive |  |  |  |
| NC(=S)N1CCCCc2cccnc21 | inactive | Active |  |  |  |
| CNC(=S)N1CCCCc2cccnc21 | inactive |  |  | Active |  |
